Laboratory results from patent publication US8765748B2, “Indazolyl, benzimidazolyl, benzotriazolyl substituted indolinone derivatives as kinase inhibitors useful in the treatment of cancer” (University Health Network, priority 2007, dated 2014).

Columns and labels:
Assay type in all cases: biochemical
human PLK4 = molecular target: T1, human PLK4 (Homo sapiens, UniProt O00444); assay: PLK4 Inhibition Assay (indirect ELISA); conditions: 15 μM ATP, 4 nM GST-PLK4; read-out: PLK4 IC50 Ranges
T1 construct: amino terminal GST fusion of residues 1-391 of human PLK4; made in house; host or cells: E. coli
T1 sequence (O00444 1-391): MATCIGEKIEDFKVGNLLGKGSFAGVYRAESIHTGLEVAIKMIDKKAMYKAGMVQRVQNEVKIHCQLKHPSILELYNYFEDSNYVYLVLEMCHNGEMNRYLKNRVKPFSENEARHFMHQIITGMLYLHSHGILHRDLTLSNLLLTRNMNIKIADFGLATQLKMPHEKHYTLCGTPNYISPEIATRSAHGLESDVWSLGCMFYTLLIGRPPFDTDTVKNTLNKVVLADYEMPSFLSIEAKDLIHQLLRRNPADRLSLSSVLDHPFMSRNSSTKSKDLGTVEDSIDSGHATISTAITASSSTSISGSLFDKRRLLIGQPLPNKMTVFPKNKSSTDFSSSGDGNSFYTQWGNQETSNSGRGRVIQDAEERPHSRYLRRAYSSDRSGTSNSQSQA
Procedure: The protein was purified from clarified cell extracts after induction at 15° C. overnight using glutathione sepharose, gel permeation chromatography, and ion exchange (Resource Q). The resulting protein was dephosphorylated with lambda phosphatase (NEB cat #P0753), and resolved from the phosphatase using gluthione sepharose. The dephosphorylated GST-PLK4 was stored in aliquots at −80° C. until use. PLK4 activity was measured using an indirect ELISA detection system. […] Compounds were pre-incubated in the presence of enzyme for 15 minutes prior to addition of ATP and the activity remaining quantified using the above described activity assay. […] The IC50 value was determined using a non-linear 4 point logistic curve fit (XLfit4, IDBS) with the formula; (A+(B/(1+((x/C)^D)))), where A=background value, B=range, C=inflection point, D=curve fit parameter.

PLK1 = molecular target: T2, PLK1 (Homo sapiens, UniProt P53350); assay: PLK1 Inhibition Assay (Z-Lyte); conditions: 25 μM ATP, 8 nM PLK1; read-out: PLK1 IC50 Ranges
T2 construct: purchased Invitrogen PV3501
Procedure: PLK1 inhibition was determined using the Z-Lyte assay kit from Invitrogen (cat #PV3802). […] The % inhibition values were determined according to the manufacturer's directions and IC50 values were obtained using a non-linear 4 point logistic curve fit (XLfit4, IDBS)

Aurora A = molecular target: T3, Aurora A (Homo sapiens, UniProt O14965); assay: Aurora A Inhibition Assay (Z-Lyte); conditions: 20 μM ATP, 12 nM Aurora A; read-out: Aurora A IC50 Ranges
T3 construct: purchased Invitrogen PV3612
T3 sequence (O14965 1-403): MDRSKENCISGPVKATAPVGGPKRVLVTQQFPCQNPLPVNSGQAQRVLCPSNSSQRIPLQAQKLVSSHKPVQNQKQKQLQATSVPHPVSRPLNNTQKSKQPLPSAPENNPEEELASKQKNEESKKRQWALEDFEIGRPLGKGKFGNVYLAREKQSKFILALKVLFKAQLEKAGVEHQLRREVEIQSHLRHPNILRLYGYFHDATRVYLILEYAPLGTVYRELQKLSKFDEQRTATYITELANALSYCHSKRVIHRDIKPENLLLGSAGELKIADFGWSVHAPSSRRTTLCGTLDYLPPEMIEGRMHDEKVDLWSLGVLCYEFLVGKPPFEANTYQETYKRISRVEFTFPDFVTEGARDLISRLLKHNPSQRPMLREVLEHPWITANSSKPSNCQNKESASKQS
Procedure: (§1) Aurora A inhibition was determined using the Z-Lyte assay kit from Invitrogen. The assay was performed using the recommended manufacturer's instructions with 20 μM ATP and 12 nM Aurora A (Invitrogen cat #PV3612). The % inhibition values were determined according to the manufacturer's directions and IC50 values were obtained using a non-linear 4 point logistic curve fit (XLfit4, IDBS)

Aurora B = molecular target: T4, Aurora B (Homo sapiens, UniProt Q96GD4); assay: Aurora B Inhibition Assay (Z-Lyte); conditions: 128 μM ATP, 28 nM Aurora B; read-out: Aurora B IC50 Ranges
T4 construct: purchased Invitrogen PV3970
Procedure: as §1, with “Aurora B” for “Aurora A”, “with 128” for “with 20”, “and 28” for “and 12”, “cat #PV3970).” for “cat #PV3612).”

T4 sequence (Q96GD4 whole entry): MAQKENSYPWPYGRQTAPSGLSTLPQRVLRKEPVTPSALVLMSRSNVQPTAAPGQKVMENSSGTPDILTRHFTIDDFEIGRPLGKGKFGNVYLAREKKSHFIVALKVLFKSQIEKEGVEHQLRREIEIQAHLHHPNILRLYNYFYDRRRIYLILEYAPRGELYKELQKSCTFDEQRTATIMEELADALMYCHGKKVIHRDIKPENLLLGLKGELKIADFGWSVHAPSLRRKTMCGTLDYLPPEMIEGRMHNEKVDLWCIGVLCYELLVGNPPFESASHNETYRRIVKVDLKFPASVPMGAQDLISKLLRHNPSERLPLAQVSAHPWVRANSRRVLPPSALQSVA
T2 sequence (P53350 whole entry): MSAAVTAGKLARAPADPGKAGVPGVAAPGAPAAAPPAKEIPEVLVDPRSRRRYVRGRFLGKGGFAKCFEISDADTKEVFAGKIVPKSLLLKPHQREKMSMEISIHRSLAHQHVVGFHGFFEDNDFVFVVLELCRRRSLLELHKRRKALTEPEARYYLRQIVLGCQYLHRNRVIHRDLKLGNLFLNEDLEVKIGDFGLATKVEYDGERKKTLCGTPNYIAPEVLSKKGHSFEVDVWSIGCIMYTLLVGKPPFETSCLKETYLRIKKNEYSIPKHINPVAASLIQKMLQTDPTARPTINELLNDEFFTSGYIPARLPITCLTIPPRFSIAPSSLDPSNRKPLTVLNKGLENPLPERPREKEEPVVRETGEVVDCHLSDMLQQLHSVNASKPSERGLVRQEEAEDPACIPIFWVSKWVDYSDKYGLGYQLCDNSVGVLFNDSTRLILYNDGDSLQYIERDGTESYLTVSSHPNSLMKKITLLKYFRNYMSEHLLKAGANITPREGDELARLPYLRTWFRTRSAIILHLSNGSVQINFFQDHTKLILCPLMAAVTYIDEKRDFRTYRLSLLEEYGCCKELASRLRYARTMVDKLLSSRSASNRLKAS

IC50 (human PLK4) | IC50 (PLK1) | IC50 (Aurora A) | IC50 (Aurora B) | SMILES
< 5 µM | > 50 µM |  |  | O=C1Nc2cc(-c3cccnc3)ccc2/C1=C\c1ccc2[nH]nnc2c1 [Example A29, (E)-3-((1H-benzo[d][1,2,3]triazol-5-yl)methylene)-6-(pyridin-3-yl)indolin-2-one]
5 to 50 µM | 5 to 50 µM |  |  | CN1C(=O)/C(=C/c2ccc3cn[nH]c3c2)c2ccccc21 [Example A34, (E)-3-((1H-indazol-6-yl)methylene)-1-methylindolin-2-one]
< 5 µM |  | < 5 µM | < 5 µM | N#Cc1ccc2c(c1)C(=Cc1ccc3c(/C=C/c4ccncc4)n[nH]c3c1)C(=O)N2 (mixture of isomers) [Example A128, (E and Z)-2-oxo-3-((3-((E)-2-(pyridin-4-yl)vinyl)-1H-indazol-6-yl)methylene)indoline-5-carbonitrile]
< 5 µM | < 5 µM |  |  | CS(=O)(=O)Nc1ccc2c(c1)/C(=C\c1ccc3cn[nH]c3c1)C(=O)N2 [Example A25, (E)-N-(3-((1H-indazol-6-yl)methylene)-2-oxoindolin-5-yl)methanesulfonamide]
5 to 50 µM | 5 to 50 µM |  |  | CNC(=O)c1ccc2c(c1)/C(=C\c1ccc3cn[nH]c3c1)C(=O)N2 [Example A8, (E)-3-((1H-indazol-6-yl)methylene)-N-methyl-2-oxoindoline-5-carboxamide]
< 5 µM | 5 to 50 µM |  |  | CC(C)(C)OC(=O)Nc1ccc2c(c1)/C(=C\c1ccc3cn[nH]c3c1)C(=O)N2 [Example A12, (E)-tert-butyl 3-((1H-indazol-6-yl)methylene)-2-oxoindolin-5-ylcarbamate]
5 to 50 µM | 5 to 50 µM |  |  | CC(=O)Nc1ccc2c(c1)NC(=O)/C2=C/c1ccc2nn[nH]c2c1 [Example A17, (E)-N-(3-((1H-benzo[d][1,2,3]triazol-5-yl)methylene)-2-oxoindolin-6-yl)acetamide]
< 5 µM | 5 to 50 µM |  |  | CC(=O)Nc1ccc2c(c1)/C(=C\c1ccc3nn[nH]c3c1)C(=O)N2 [Example A23, (E)-N-(3-((1H-benzo[d][1,2,3]triazol-5-yl)methylene)-2-oxoindolin-5-yl)acetamide]
< 5 µM | 5 to 50 µM |  |  | CS(=O)(=O)Nc1ccc2c(c1)/C(=C\c1ccc3nn[nH]c3c1)C(=O)N2 [Example A24, (E)-N-(3-((1H-benzo[d][1,2,3]triazol-5-yl)methylene)-2-oxoindolin-5-yl)methanesulfonamide]
< 5 µM | 5 to 50 µM |  |  | Nc1ccc2c(c1)/C(=C\c1ccc3cn[nH]c3c1)C(=O)N2 [Example A15, (E)-3-((1H-indazol-6-yl)methylene)-2-oxoindolin-5-aminium 2,2,2-trifluoroacetate]
< 5 µM | > 50 µM |  |  | O=C1Nc2ccc(OC(F)(F)F)cc2/C1=C\c1ccc2nn[nH]c2c1 [Example A14, (E)-3-((1H-benzo[d][1,2,3]triazol-5-yl)methylene)-5-(trifluoromethoxy)indolin-2-one]

The remaining lines, values behind:

SMILES | IC50 (human PLK4) | IC50 (PLK1) | IC50 (Aurora A) | IC50 (Aurora B)
O=C1Nc2ccc(Br)cc2C1=Cc1ccc2c(/C=C/c3cccnc3)n[nH]c2c1 (mixture of isomers) [Example A139, (E and Z)-5-bromo-3-((3-((E)-2-(pyridin-3-yl)vinyl)-1H-indazol-6-yl)methylene)indolin-2-one] | < 5 µM |  | < 5 µM | < 5 µM
COc1ccc2c(c1)C(=Cc1ccc3c(/C=C/c4ccc(CN(C)C)cc4)n[nH]c3c1)C(=O)N2 (stereo in doubt) [Example A136b, (Z)-3-((3-(4-((dimethylamino)methyl)styryl)-1H-indazol-6-yl)-methylene)-5-methoxyindolin-2-one 2,2,2-trifluoroacetate] |  |  | < 5 µM | < 5 µM
COc1cc2c(cc1OC)/C(=C\c1ccc3c(/C=C/c4ccncc4)n[nH]c3c1)C(=O)N2 [Example A138, (E)-5,6-dimethoxy-3-((3-((E)-2-(pyridin-4-yl)vinyl)-1H-indazol-6-yl)methylene)indolin-2-one] | < 5 µM |  | < 5 µM | < 5 µM
CN(C)CCCNc1ccc2c(c1)C(=Cc1ccc3c(/C=C/c4ccncc4)n[nH]c3c1)C(=O)N2 (mixture of isomers) [Example A130, (E and Z)-5-(3-(dimethylamino)propylamino)-3-((3-((E)-2-(pyridin-4-yl)-vinyl)-1H-indazol-6-yl)methylene)indolin-2-one] | < 5 µM |  |  | < 5 µM
CC(=O)Nc1ccc2c(c1)NC(=O)/C2=C/c1ccc2[nH]ncc2c1 [Example A18] | < 5 µM | 5 to 50 µM |  | 
CN(C)CCN(C)S(=O)(=O)c1ccc2c(c1)C(=Cc1ccc3c(/C=C/c4ccncc4)n[nH]c3c1)C(=O)N2 (mixture of isomers) [Example A129, (E and Z)—N-(2-(dimethylamino)ethyl)-N-methyl-2-oxo-3-((3-((E)-2-(pyridin-4-yl)vinyl)-1H-indazol-6-yl)methylene)indoline-5-sulfonamide] | < 5 µM |  |  | < 5 µM
O=C1Nc2cc(-c3cccnc3)ccc2/C1=C\c1ccc2[nH]ncc2c1 [Example A30, (E)-3-((1H-indazol-5-yl)methylene)-6-(pyridin-3-yl)indolin-2-one] | 5 to 50 µM | > 50 µM |  | 
CC(C)(C)OC(=O)Nc1ccc2c(c1)/C(=C\c1ccc3c(/C=C/c4ccncc4)n[nH]c3c1)C(=O)N2 [Example A121, tert-butyl(E)-2-oxo-3-((3-((E)-2-(pyridin-4-yl)vinyl)-1H-indazol-6-yl)methylene)indolin-5-ylcarbamate] | < 5 µM |  |  | < 5 µM
CN1C(=O)/C(=C/c2ccc3nn[nH]c3c2)c2ccccc21 [Example A33, (E)-3-((1H-benzo[d][1.2.3]triazol-5-yl)methylene)-1-methylindolin-2-one] | 5 to 50 µM | > 50 µM |  | 
C/C(=C1\C(=O)Nc2ccccc21)c1ccc2cn[nH]c2c1 [Example A51, (E)-3-(1-(1H-indazol-6-yl)ethylidene)indolin-2-one] | < 5 µM |  |  | 5 to 50 µM
CN(C)S(=O)(=O)Nc1ccc2c(c1)/C(=C\c1ccc3nn[nH]c3c1)C(=O)N2 [Example A21, N′-[(3E)-3-(1H-benzotriazol-5-ylmethylidene)-2-oxo-2,3-dihydro-1H-indol-5-yl]-N,N-dimethylsulfamide] | < 5 µM | 5 to 50 µM |  | 
COc1ccc2c(c1)/C(=C\c1ccc3c(/C=C/c4cccc[n+]4[O-])n[nH]c3c1)C(=O)N2 [Example A88, 2-((E)-2-(6-((E)-(5-methoxy-2-oxoindolin-3-ylidene)methyl)-1H-indazol-3-yl)vinyl)pyridine 1-oxide] | < 5 µM |  |  | < 5 µM
CC(C)NC(=O)Nc1ccc2c(c1)/C(=C\c1ccc3nn[nH]c3c1)C(=O)N2 [Example A27, (E)-1-(3-((1H-benzo[d][1,2,3]triazol-5-yl)methylene)-2-oxoindolin-5-yl)-3-isopropylurea] | 5 to 50 µM | 5 to 50 µM |  | 
CN(C)S(=O)(=O)Nc1ccc2c(c1)/C(=C\c1ccc3cn[nH]c3c1)C(=O)N2 [Example A20, N′-[(3E)-3-(1H-indazol-6-ylmethylidene)-2-oxo-2,3-dihydro-1H-indol-5-yl]-N,N-dimethylsulfamide] | < 5 µM | < 5 µM |  | 
